Source: PubChem BioAssay AID2060906 (Molecular Pharmacology Branch, DTP, NCI, 2025)
One block for each compound: values may come before it.

Tested on: 485176-168-R4-J1-PDC complex spheroid growth
Assay: Anticancer human tumor 485176-168-R4-J1-PDC patient-derived pancreatic adenocarcinoma cell line growth inhibition [RAS]
Conditions: for IC50: curve of first compound; for viability, T/C: stronger effect = lower value
Outline: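 Agents were tested in combination matrices in half-log decrements from a top concentration at or near clinical Cmax (10 microM if undetermined). Targets were multi-cell spheroids of tumour lines plus HUVEC and MSC stromal cells.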

[1] = second compound 0.0316 µM, first compound 0.0316 µM
[2] = second compound 0.0316 µM, first compound 0.1 µM
[3] = second compound 0.0316 µM, first compound 0.316 µM
[4] = second compound 0.0316 µM, first compound 1 µM
[5] = second compound 0.1 µM, first compound 0.0316 µM
[6] = second compound 0.1 µM, first compound 0.1 µM
[7] = second compound 0.1 µM, first compound 0.316 µM
[8] = second compound 0.1 µM, first compound 1 µM
[9] = second compound 0.316 µM, first compound 0.0316 µM
[10] = second compound 0.316 µM, first compound 0.1 µM
[11] = second compound 0.316 µM, first compound 0.316 µM
[12] = second compound 0.316 µM, first compound 1 µM
[13] = second compound 1 µM, first compound 0.0316 µM
[14] = second compound 1 µM, first compound 0.1 µM
[15] = second compound 1 µM, first compound 0.316 µM
[16] = second compound 1 µM, first compound 1 µM
[17] = second compound 3.16 µM, first compound 0.0316 µM
[18] = second compound 3.16 µM, first compound 0.1 µM
[19] = second compound 3.16 µM, first compound 0.316 µM
[20] = second compound 3.16 µM, first compound 1 µM
[21] = second compound 10 µM, first compound 0.0316 µM
[22] = second compound 10 µM, first compound 0.1 µM
[23] = second compound 10 µM, first compound 0.316 µM
[24] = second compound 10 µM, first compound 1 µM
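Also: spheroids exposed to compounds for seven days before readout.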
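For viability, T/C in this document: luminescence viability expressed relative to DMSO vehicle wells set as 100%.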

IC50 (second compound 0.0316 µM): > 1000 nM
IC50 (second compound 0.1 µM): > 1000 nM
IC50 (second compound 0.316 µM): > 1000 nM
IC50 (second compound 1 µM): > 1000 nM
IC50 (second compound 3.16 µM): > 1000 nM
IC50 (second compound 10 µM): > 1000 nM
Structure (SMILES): C=CC(=O)N1CCN(c2nc(OCC3CCCN3C)nc3c(F)c(-c4nc(N)cc(C)c4C(F)(F)F)c(Cl)cc23)C(C)C1 (centres undefined) + C#Cc1c(F)ccc2cc(O)cc(-c3ncc4c(N5CC6CCC(C5)N6)nc(OCC56CCCN5CC(F)C6)nc4c3F)c12
viability, T/C (second compound 0.0316 µM, first compound 0.00316 µM): 103%
viability, T/C (second compound 0.0316 µM, first compound 0.01 µM): 88.9%
viability, T/C [1]: 88.5%
viability, T/C [2]: 105%
viability, T/C [3]: 96.8%
viability, T/C [4]: 103%
viability, T/C (second compound 0.1 µM, first compound 0.00316 µM): 117%
viability, T/C (second compound 0.1 µM, first compound 0.01 µM): 109%
viability, T/C [5]: 99.2%
viability, T/C [6]: 102%
viability, T/C [7]: 108%
viability, T/C [8]: 103%
viability, T/C (second compound 0.316 µM, first compound 0.00316 µM): 86.8%
viability, T/C (second compound 0.316 µM, first compound 0.01 µM): 93.6%
viability, T/C [9]: 103%
viability, T/C [10]: 103%
viability, T/C [11]: 87.3%
viability, T/C [12]: 89.9%
viability, T/C (second compound 1 µM, first compound 0.00316 µM): 115%
viability, T/C (second compound 1 µM, first compound 0.01 µM): 83.1%
viability, T/C [13]: 77.5%
viability, T/C [14]: 101%
viability, T/C [15]: 97.1%
viability, T/C [16]: 86.1%
viability, T/C (second compound 3.16 µM, first compound 0.00316 µM): 115%
viability, T/C (second compound 3.16 µM, first compound 0.01 µM): 92.2%
viability, T/C [17]: 85.3%
viability, T/C [18]: 104%
viability, T/C [19]: 98.1%
viability, T/C [20]: 70.3%
viability, T/C (second compound 10 µM, first compound 0.00316 µM): 94.1%
viability, T/C (second compound 10 µM, first compound 0.01 µM): 81.8%
viability, T/C [21]: 95.9%
viability, T/C [22]: 94.6%
viability, T/C [23]: 95.2%
viability, T/C [24]: 94.8%

IC50 (second compound 0.0316 µM): < 31.6 nM
IC50 (second compound 0.1 µM): < 31.6 nM
IC50 (second compound 0.316 µM): < 31.6 nM
IC50 (second compound 1 µM): < 31.6 nM
IC50 (second compound 3.16 µM): < 31.6 nM
IC50 (second compound 10 µM): < 31.6 nM
Structure (SMILES): CC(=O)OC12COC1CC(O)C1(C)C(=O)C(O)C3=C(C)C(OC(=O)C(O)C(NC(=O)OC(C)(C)C)c4ccccc4)CC(O)(C(OC(=O)c4ccccc4)C21)C3(C)C (centres undefined) + C#Cc1c(F)ccc2cc(O)cc(-c3ncc4c(N5CC6CCC(C5)N6)nc(OCC56CCCN5CC(F)C6)nc4c3F)c12
viability, T/C [1]: 18.5%
viability, T/C [2]: 15.3%
viability, T/C [3]: 14.6%
viability, T/C [4]: 13.5%
viability, T/C (second compound 0.0316 µM, first compound 3.16 µM): 18.5%
viability, T/C (second compound 0.0316 µM, first compound 10 µM): 21.8%
viability, T/C [5]: 19.1%
viability, T/C [6]: 14.5%
viability, T/C [7]: 13.7%
viability, T/C [8]: 14.9%
viability, T/C (second compound 0.1 µM, first compound 3.16 µM): 19.8%
viability, T/C (second compound 0.1 µM, first compound 10 µM): 21.2%
viability, T/C [9]: 15.1%
viability, T/C [10]: 12.4%
viability, T/C [11]: 13.4%
viability, T/C [12]: 11.6%
viability, T/C (second compound 0.316 µM, first compound 3.16 µM): 16.6%
viability, T/C (second compound 0.316 µM, first compound 10 µM): 19.4%
viability, T/C [13]: 17%
viability, T/C [14]: 15.8%
viability, T/C [15]: 12.8%
viability, T/C [16]: 11.8%
viability, T/C (second compound 1 µM, first compound 3.16 µM): 19.2%
viability, T/C (second compound 1 µM, first compound 10 µM): 20.6%
viability, T/C [17]: 20.6%
viability, T/C [18]: 16.5%
viability, T/C [19]: 15.2%
viability, T/C [20]: 13.8%
viability, T/C (second compound 3.16 µM, first compound 3.16 µM): 16.5%
viability, T/C (second compound 3.16 µM, first compound 10 µM): 20.6%
viability, T/C [21]: 16.5%
viability, T/C [22]: 12.2%
viability, T/C [23]: 13.3%
viability, T/C [24]: 11.7%
viability, T/C (second compound 10 µM, first compound 3.16 µM): 16%
viability, T/C (second compound 10 µM, first compound 10 µM): 19%
